According to patent US9771369B2, “Compounds and methods for kinase modulation, and indications therefor” (Plexxikon Inc., priority 2014, dated 2017):
pIC50: −log10 of the molar value.

What was measured:
[1] = tested on: BaF3-FL KIT D816V or BaF3-FL KIT V560G/D816V cell line; assay: Cell-based assays of c-Kit mutant kinase activity (cell proliferation, ATPlite); details: at least one of the c-kit cell assays of Example 7
Procedure, shortened: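 BaF3 cells dependent on transfected full-length human KIT D816V or V560G/D816V (pCI-Neo, CMV promoter) were seeded at 1×10^4 cells/well and exposed to 8-point 1:3 dilutions from 10 μM top (0.2% DMSO) for three days at 37° C. ATPlite luminescence gave cell number; IC50 from concentration-response.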

c-kit mutant D816V = c-kit mutant D816V (Homo sapiens (Human), UniProt P10721, D816V/DEL694-753); assay: c-Kit mutant D816V biochemical assay (AlphaScreen kinase activity)
Procedure, shortened: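 Recombinant His-tagged c-Kit D816V kinase domain (residues 551-934, insert 694-753 deleted, E. coli-expressed) phosphorylating 30 nM biotin-(E4Y)10 with 10 μM ATP, HEPES pH 7.2, Mg/Mn, 5% DMSO; 30 min, room temperature. Phosphorylation detected by AlphaScreen (streptavidin donor/PY30 acceptor beads); IC50 from 8-point 1:3 series.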

Sequence of c-kit mutant D816V (P10721 other isoform, or with tags, fused parts or gaps D816V/del 694-753): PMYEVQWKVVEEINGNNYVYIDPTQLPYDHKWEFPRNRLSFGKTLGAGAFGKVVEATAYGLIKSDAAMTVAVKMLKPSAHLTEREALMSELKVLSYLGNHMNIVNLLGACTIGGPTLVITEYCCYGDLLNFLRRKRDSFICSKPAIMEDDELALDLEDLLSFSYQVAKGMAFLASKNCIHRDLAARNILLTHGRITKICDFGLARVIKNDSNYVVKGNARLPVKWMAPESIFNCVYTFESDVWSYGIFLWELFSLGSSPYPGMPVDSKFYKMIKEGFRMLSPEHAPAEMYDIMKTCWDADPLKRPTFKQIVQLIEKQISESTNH

| SMILES | pIC50 [1] | IC50 (c-kit mutant D816V) [µM] |
| --- | --- | --- |
| COc1ccc(-c2[nH]c(C3(C)CCN(c4ncnc5[nH]c(-c6cnn(C(F)F)c6)cc45)CC3)nc2C)cc1 [P-3153, 6-[1-(difluoromethyl)pyrazol-4-yl]-4-[4-[5-(4-methoxyphenyl)-4-methyl-1H-imidazol-2-yl]-4-methyl-1-piperidyl]-7H-pyrrolo[2,3-d]pyrimidine] | > 5.00 | 0.0001 to 1 |
| COc1ccc(-c2[nH]c(C3(C)CCN(c4ncnc5[nH]c(-c6cnn(C(F)F)c6)cc45)CC3)nc2C)cc1C [P-3154, 6-[1-(difluoromethyl)pyrazol-4-yl]-4-[4-[5-(4-methoxy-3-methyl-phenyl)-4-methyl-1H-imidazol-2-yl]-4-methyl-1-piperidyl]-7H-pyrrolo[2,3-d]pyrimidine] | > 5.00 | 0.0001 to 1 |
| Cc1nc(C2(C)CCN(c3ncnc4[nH]c(-c5cnn(C(F)F)c5)cc34)CC2)[nH]c1-c1ccc2c(c1)OCO2 [P-3155, 4-[4-[5-(1,3-benzodioxol-5-yl)-4-methyl-1H-imidazol-2-yl]-4-methyl-1-piperidyl]-6-[1-(difluoromethyl)pyrazol-4-yl]-7H-pyrrolo[2,3-d]pyrimidine] | > 5.00 | 0.0001 to 1 |
| COc1ccc(-c2[nH]c(C3(C)CCN(c4ncnc5[nH]c(-c6ccc(OC)nc6)cc45)CC3)nc2C)cc1 [P-3156, 4-[4-[5-(4-methoxyphenyl)-4-methyl-1H-imidazol-2-yl]-4-methyl-1-piperidyl]-6-(6-methoxy-3-pyridyl)-7H-pyrrolo[2,3-d]pyrimidine] | > 5.00 | 0.0001 to 1 |
| COc1ccc(-c2cc3c(N4CCC(C)(c5nc(C)c(-c6ccc(OC)c(C)c6)[nH]5)CC4)ncnc3[nH]2)cn1 [P-3157, 4-[4-[5-(4-methoxy-3-methyl-phenyl)-4-methyl-1H-imidazol-2-yl]-4-methyl-1-piperidyl]-6-(6-methoxy-3-pyridyl)-7H-pyrrolo[2,3-d]pyrimidine] | > 5.00 | 0.0001 to 1 |
| COc1ccc(-c2cc3c(N4CCC(C)(c5nc(C)c(-c6ccc7c(c6)OCO7)[nH]5)CC4)ncnc3[nH]2)cn1 [P-3158, 4-[4-[5-(1,3-benzodioxol-5-yl)-4-methyl-1H-imidazol-2-yl]-4-methyl-1-piperidyl]-6-(6-methoxy-3-pyridyl)-7H-pyrrolo[2,3-d]pyrimidine] | > 5.00 | 0.0001 to 1 |
| Cc1nc(C2(C)CCN(c3ncnc4[nH]c(-c5ccc(C#N)cc5)cc34)CC2)[nH]c1-c1ccc2c(c1)OCO2 [P-3159, 4-[4-[4-[5-(1,3-benzodioxol-5-yl)-4-methyl-1H-imidazol-2-yl]-4-methyl-1-piperidyl]-7H-pyrrolo[2,3-d]pyrimidin-6-yl]benzonitrile] | > 5.00 | 0.0001 to 1 |
| CCOc1ccc(-c2[nH]c(C3(C)CCN(c4ncnc5[nH]c(-c6ccc(C#N)cc6)cc45)CC3)nc2C)cc1C [P-3160, 4-[4-[4-[5-(4-ethoxy-3-methyl-phenyl)-4-methyl-1H-imidazol-2-yl]-4-methyl-1-piperidyl]-7H-pyrrolo[2,3-d]pyrimidin-6-yl]benzonitrile] | > 5.00 | 0.0001 to 1 |
| CCOc1ccc(-c2[nH]c(C3(C)CCN(c4ncnc5[nH]c(-c6ccc(C#N)cc6)cc45)CC3)nc2C)cc1 [P-3161, 4-[4-[4-[5-(4-ethoxyphenyl)-4-methyl-1H-imidazol-2-yl]-4-methyl-1-piperidyl]-7H-pyrrolo[2,3-d]pyrimidin-6-yl]benzonitrile] | > 5.00 | 0.0001 to 1 |
| Cc1nc(C2CCN(c3ncnc4[nH]c(-c5ccc(C#N)cc5)cc34)CC2)[nH]c1-c1ccc(C(F)F)cc1 [P-3162, 4-[4-[4-[5-[4-(difluoromethyl)phenyl]-4-methyl-1H-imidazol-2-yl]-1-piperidyl]-7H-pyrrolo[2,3-d]pyrimidin-6-yl]benzonitrile] | > 5.00 | 0.0001 to 1 |
| COc1ccc(-c2[nH]c(C3(C)CCN(c4ncnc5[nH]c(-c6ccc(C#N)cc6)cc45)CC3)nc2C)cc1F [P-3163, 4-[4-[4-[5-(3-fluoro-4-methoxy-phenyl)-4-methyl-1H-imidazol-2-yl]-4-methyl-1-piperidyl]-7H-pyrrolo[2,3-d]pyrimidin-6-yl]benzonitrile] | > 5.00 | 0.0001 to 1 |
| Cc1nc(C2(C)CCN(c3ncnc4[nH]c(-c5ccc(C#N)cc5)cc34)CC2)[nH]c1-c1ccc(C(F)F)cc1 [P-3164, 4-[4-[4-[5-[4-(difluoromethyl)phenyl]-4-methyl-1H-imidazol-2-yl]-4-methyl-1-piperidyl]-7H-pyrrolo[2,3-d]pyrimidin-6-yl]benzonitrile] | > 5.00 | 0.0001 to 1 |
| Cc1cc2c(N3CCC(C)(c4nc(C)c(-c5ccc(C(F)(F)F)cc5)[nH]4)CC3)ncnc2[nH]1 [P-3165, 6-methyl-4-[4-methyl-4-[4-methyl-5-[4-(trifluoromethyl)phenyl]-1H-imidazol-2-yl]-1-piperidyl]-7H-pyrrolo[2,3-d]pyrimidine] | > 5.00 | 0.0001 to 1 |
| COc1cccc(-c2[nH]c(C3(C)CCN(c4ncnc5[nH]c(C)cc45)CC3)nc2C)c1 [P-3166, 4-[4-[5-(3-methoxyphenyl)-4-methyl-1H-imidazol-2-yl]-4-methyl-1-piperidyl]-6-methyl-7H-pyrrolo[2,3-d]pyrimidine] | > 5.00 | 0.0001 to 1 |
| COc1cccc(-c2[nH]c(C3(C)CCN(c4ncnc5[nH]c(-c6ccc(C#N)cc6)cc45)CC3)nc2C)c1 [P-3167, 4-[4-[4-[5-(3-methoxyphenyl)-4-methyl-1H-imidazol-2-yl]-4-methyl-1-piperidyl]-7H-pyrrolo[2,3-d]pyrimidin-6-yl]benzonitrile] | > 5.00 | 0.0001 to 1 |
| COc1cccc(-c2[nH]c(C3(C)CCN(c4ncnc5[nH]c(-c6cnn(C(F)F)c6)cc45)CC3)nc2C)c1 [P-3168, 6-[1-(difluoromethyl)pyrazol-4-yl]-4-[4-[5-(3-methoxyphenyl)-4-methyl-1H-imidazol-2-yl]-4-methyl-1-piperidyl]-7H-pyrrolo[2,3-d]pyrimidine] | > 5.00 | 0.0001 to 1 |
| COc1cccc(-c2[nH]c(C3(C)CCN(c4ncnc5[nH]c(-c6ccc(OC)nc6)cc45)CC3)nc2C)c1 [P-3169, 4-[4-[5-(3-methoxyphenyl)-4-methyl-1H-imidazol-2-yl]-4-methyl-1-piperidyl]-6-(6-methoxy-3-pyridyl)-7H-pyrrolo[2,3-d]pyrimidine] | > 5.00 | 0.0001 to 1 |
| CCOc1ccc(-c2[nH]c(C3(C)CCN(c4ncnc5[nH]c(-c6cnn(C(F)F)c6)cc45)CC3)nc2C)cc1 [P-3170, 6-[1-(difluoromethyl)pyrazol-4-yl]-4-[4-[5-(4-ethoxyphenyl)-4-methyl-1H-imidazol-2-yl]-4-methyl-1-piperidyl]-7H-pyrrolo[2,3-d]pyrimidine] | > 5.00 | 0.0001 to 1 |
| Fc1ccc(-c2cc3c(N4CCC(c5nnc(-c6cccc(OC(F)F)c6)[nH]5)CC4)ncnc3[nH]2)cc1 [P-3204, 4-[4-[5-[3-(difluoromethoxy)phenyl]-4H-1,2,4-triazol-3-yl]-1-piperidyl]-6-(4-fluorophenyl)-7H-pyrrolo[2,3-d]pyrimidine] | > 5.00 | 0.0001 to 1 |
| COc1cc(-c2cc3c(N4CCC(c5nnc(-c6ccc(F)cc6)[nH]5)CC4)ncnc3[nH]2)ccn1 [P-3205, 4-[4-[5-(4-fluorophenyl)-4H-1,2,4-triazol-3-yl]-1-piperidyl]-6-(2-methoxy-4-pyridyl)-7H-pyrrolo[2,3-d]pyrimidine] | > 5.00 | 1 to 10 |
